Measurements published in patent publication US8637670B2, “Imidazo [4,5-C]quinoline derivatives and their use in the treatment of tumors and/or inflammation” (Piramal Enterprises Limited, priority 2009, dated 2014).

Columns and labels:
PI3Kα kinase = molecular target: T1, PI3Kα kinase (Homo sapiens, UniProt P42336); assay: PI3Kα assay (32P incorporation into phosphatidylinositol, TLC densitometry); format: biochemical; conditions: At 100 nM
T1 construct: purchased Millipore, USA
Method: The assay was designed as in the reference, Cell, 2006, 125, 733-47 (Supplemental Data), the disclosure of which is incorporated by reference for the teaching of the assay.
The kinase reaction was carried out in a 25 μL volume in a 1.5 mL microcentrifuge tube. The reaction mixture consisted of kinase buffer (10 mM Hepes, pH 7.5, 50 mM MgCl2), 20 ng PI3Kα kinase (Millipore, USA), 12.5 μg phosphatidylinositol (PI), 10 μM ATP and 1 μCi ^32γ P dATP. Compounds of Example 1-40 were added at concentrations (stock solution was prepared in DMSO and subsequent dilutions were made in kinase buffer) as mentioned in the table. The reaction mixture was incubated at 30° C. for 20 minutes and was terminated by adding 1:1 mixture of MeOH and chloroform. The tube contents were mixed on a vortex mixer and centrifuged at 10000 rpm for 2 minutes. 10 μL of the organic (lower) phase was spotted on to a TLC plate (silica, mobile phase: n-propanol and 2 M glacial acetic acid in 65:35 ratio). The plates were dried and exposed to an X-ray film. The bands appearing as a result of ^32γ P incorporation in PI were quantitated using the QuantityOne (BioRad, USA) densitometry program. PI-103 (Calbiochem, USA) was used as a standard.

PI3K α = assay: PI3K activity assay, cell-based ELISA of AKT (Ser 473) phosphorylation; conditions: Homo sapiens, Ovarian cell line A2780, 20% FCS stimulation
Method: The assay was designed as in the reference, Biochemical Journal, 2000, 350, 717-722, the disclosure of which is incorporated by reference for the teaching of the assay.
Seed cells (Ovarian cell line A2780, ATCC) were plated in a 96 well microtitre plate at a density of 50,000 cells/cm^2 in appropriate complete cell culture medium. The cells were allowed to adhere for 18-24 hours. The cells were allowed to starve for 24 hours. The cells were pretreated (in triplicates) with the compounds of Example 1-40 (stock solution was prepared in DMSO and subsequent dilutions were made in kinase buffer) at a concentration of 10 μM for one hour. Then the cells were stimulated with 20% FCS for 30 minutes. A typical assay would consist of a set of unstimulated cells, a set of stimulated cells and a set of cells treated with compounds of Example 1-40 and a set of cells treated with the stimulator. The medium was discarded. The cells were fixed with 100 μL of 3.7% formaldehyde for 15 minutes. The formaldehyde was discarded by inverting the plate and tapping it on a thick tissue paper layer to remove traces. The cells were washed and permeabilized with 200 μL PBS+Triton-X 100 solution (hereafter referred to as PBS-Triton, containing 0.1% triton-X 100 in 1×PBS) three times, incubating the cells each time for 5 minutes. 100 μL blocking solution (10% FCS in PBS-Triton) was added and incubated for 1 hour at 25° C. The blocking solution was discarded and cells were incubated with the primary antibody in PBS-Triton at a dilution of 1:500 for 1 hour at RT (25° C.). [The primary antibody is Phospho-AKT (Ser 473); Cell Signaling; USA, Cat. No. 9271]. The primary antibody solution was discarded and the cells were washed 3 times with PBS-Triton solution and incubated with the HRP-conjugated secondary antibody in PBS-Triton at a dilution of 1:500 for 1 hour at RT (25° C.). The cells were washed 3 times with PBS-Triton followed by two washes with PBS (to remove traces of triton-X 100). The OPD (o-phenylene diamine dihydrochloride) substrate was prepared for detection of the signal by dissolving one tablet set (two tablets) of SigmaFast OPD (Sigma, USA, Cat No. P9187) in 20 mL distilled water. It should be kept protected from light. 100 μL OPD solutions was added to the wells and the plate was incubated in the dark for 3-5 minutes (depending upon the development of the color). The reaction was stopped by adding 50 μL 2 NH2SO4. The absorbance was measured at 490 nm. The values were expressed in the treated samples, in terms of percentage or fold decrease in AKT phosphorylation with respect to the induced sample. PI-103 (Calbiochem, USA) was used as a standard.

A549 = assay: Cytotoxicity, propidium iodide assay, A549; format: cell-based; conditions: Homo sapiens; Lung, A549, 48 hours treatment; read-out: IC50, C1a (A549)
Procedure, shortened: (§1)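 3000 cells/well; 18-24 h attachment at 37° C./5% CO2; compound 48 h; PBS wash; 7 μg/ml PI; freeze −70° C. ≥24 h; thaw to RT, fluorescence read; IC50 from % viability vs untreated.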

H460 = assay: Cytotoxicity, propidium iodide assay, H460; format: cell-based; conditions: Homo sapiens, NCI-H460; Lung, H460, 48 hours treatment; read-out: IC50, C1b (H460)
Procedure, shortened: as §1

PC3 = assay: Cytotoxicity, propidium iodide assay, PC3; format: cell-based; conditions: Homo sapiens, PC-3; Prostate, PC3, 48 hours treatment; read-out: IC50, C2a (PC3)
Procedure, shortened: as §1

A2780 = assay: Cytotoxicity, propidium iodide assay, A2780; format: cell-based; conditions: Homo sapiens; Ovarian, A2780, 48 hours treatment; read-out: IC50, C3a (A2780)
Procedure, shortened: as §1

HCT116 = assay: Cytotoxicity, propidium iodide assay, HCT116; format: cell-based; conditions: Homo sapiens, HCT-116; Colon, HCT116, 48 hours treatment; read-out: IC50, C4a (HCT116)
Procedure, shortened: as §1

AsPC 1 = assay: Cytotoxicity, propidium iodide assay, AsPC 1; format: cell-based; conditions: Homo sapiens, ASPC1; Pancreatic, AsPC 1, 48 hours treatment; read-out: IC50, C5b (AsPC 1)
Method: (§2) The assay was designed as in the reference, Anticancer Drugs, 2002, 13, 1-8, the disclosure of which is incorporated by reference for the teaching of the assay.
(§3) Cells from cell lines as mentioned in the table given below were seeded at a density of 3000 cells/well in a white opaque 96-well plate. Following incubation at 37° C./5% CO2 for a period of 18-24 hours, the cells were treated with various concentrations (stock solution was prepared in DMSO and subsequent dilutions were made in media as per ATCC guidelines) of the compounds of Example 1-40 was for a period of 48 hours. At the end of treatment, the spent culture medium was discarded, the cells were washed with 1×PBS and 200 μl of 7 μg/ml propidium iodide was added to each well. The plates were frozen at −70° C. for at least 24 hours. For analysis, the plates were brought to RT, allowed to thaw and were read in PoleStar fluorimeter with the fluorescence setting. The percentage of viable cells in the non-treated set of wells was considered to be 100 and the percentage viability following treatment was calculated accordingly. IC50 values were calculated from graphs plotted using these percentages. Table 4 depicts the IC50 values of compounds of Example 1-40 in individual cell lines.
(§4) The abbreviations for the Cell Lines as used in Table 4 are: […]

BxPC3 = assay: Cytotoxicity, propidium iodide assay, BxPC3; format: cell-based; conditions: Homo sapiens, BXPC-3; Pancreatic, BxPC3, 48 hours treatment; read-out: IC50, C5c (BxPC3)
Method: as §2, §3, §4

IL-6 = assay: Human monocyte assay, LPS-stimulated IL-6 (ELISA); format: cell-based; conditions: human monocytes, 1 μg/ml LPS, 5 hours
Procedure, shortened: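 IL-6 and TNF-α in supernatants were quantified by ELISA after 5 h of 1 μg/ml LPS (E. coli 0111:B4) challenge at 37 °C, following a 30 min compound pretreatment (vehicle 0.5% DMSO). Cells were adherent human blood monocytes, 2×10^4 per well, cultured 48 h beforehand. Nonlinear regression gave IC50; a parallel MTS plate checked toxicity.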

MDA MB 468 = assay: Cytotoxicity, propidium iodide assay, MDA MB 468; format: cell-based; conditions: Homo sapiens; Breast, MDA MB 468, 48 hours treatment; read-out: IC50, C6b (MDA MB 468)
Method: as §2, §3, §4

BT 549 = assay: Cytotoxicity, propidium iodide assay, BT 549; format: cell-based; conditions: Homo sapiens; Breast, BT 549, 48 hours treatment; read-out: IC50, C6d (BT 549)
Method: as §2, §3, §4

T1 sequence (P42336 whole entry): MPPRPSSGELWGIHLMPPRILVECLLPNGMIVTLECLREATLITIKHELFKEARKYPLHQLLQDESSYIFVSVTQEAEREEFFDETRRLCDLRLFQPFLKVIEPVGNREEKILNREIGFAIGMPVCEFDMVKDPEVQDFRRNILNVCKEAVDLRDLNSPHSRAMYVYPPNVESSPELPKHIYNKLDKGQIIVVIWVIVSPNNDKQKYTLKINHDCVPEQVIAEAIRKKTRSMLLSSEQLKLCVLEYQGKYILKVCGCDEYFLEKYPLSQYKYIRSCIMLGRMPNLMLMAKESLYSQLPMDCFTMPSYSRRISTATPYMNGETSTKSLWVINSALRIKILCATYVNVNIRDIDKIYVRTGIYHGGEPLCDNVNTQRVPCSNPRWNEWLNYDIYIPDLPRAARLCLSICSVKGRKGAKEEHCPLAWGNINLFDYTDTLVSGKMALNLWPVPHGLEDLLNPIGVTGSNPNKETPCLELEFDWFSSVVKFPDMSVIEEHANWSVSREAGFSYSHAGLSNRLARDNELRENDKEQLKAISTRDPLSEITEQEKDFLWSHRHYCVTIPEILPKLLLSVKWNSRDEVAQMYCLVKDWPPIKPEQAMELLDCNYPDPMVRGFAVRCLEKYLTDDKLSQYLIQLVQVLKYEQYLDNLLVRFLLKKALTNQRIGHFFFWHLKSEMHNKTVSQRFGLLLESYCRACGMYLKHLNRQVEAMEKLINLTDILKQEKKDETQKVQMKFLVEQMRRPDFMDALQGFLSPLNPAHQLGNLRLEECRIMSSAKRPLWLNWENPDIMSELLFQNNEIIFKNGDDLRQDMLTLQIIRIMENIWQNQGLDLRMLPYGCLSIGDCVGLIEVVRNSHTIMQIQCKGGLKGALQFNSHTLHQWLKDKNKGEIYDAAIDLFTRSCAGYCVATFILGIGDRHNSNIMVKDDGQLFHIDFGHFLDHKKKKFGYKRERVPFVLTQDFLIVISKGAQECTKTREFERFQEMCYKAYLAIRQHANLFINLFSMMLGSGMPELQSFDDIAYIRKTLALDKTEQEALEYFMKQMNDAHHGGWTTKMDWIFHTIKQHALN
T1 sequence (P27986 whole entry partner): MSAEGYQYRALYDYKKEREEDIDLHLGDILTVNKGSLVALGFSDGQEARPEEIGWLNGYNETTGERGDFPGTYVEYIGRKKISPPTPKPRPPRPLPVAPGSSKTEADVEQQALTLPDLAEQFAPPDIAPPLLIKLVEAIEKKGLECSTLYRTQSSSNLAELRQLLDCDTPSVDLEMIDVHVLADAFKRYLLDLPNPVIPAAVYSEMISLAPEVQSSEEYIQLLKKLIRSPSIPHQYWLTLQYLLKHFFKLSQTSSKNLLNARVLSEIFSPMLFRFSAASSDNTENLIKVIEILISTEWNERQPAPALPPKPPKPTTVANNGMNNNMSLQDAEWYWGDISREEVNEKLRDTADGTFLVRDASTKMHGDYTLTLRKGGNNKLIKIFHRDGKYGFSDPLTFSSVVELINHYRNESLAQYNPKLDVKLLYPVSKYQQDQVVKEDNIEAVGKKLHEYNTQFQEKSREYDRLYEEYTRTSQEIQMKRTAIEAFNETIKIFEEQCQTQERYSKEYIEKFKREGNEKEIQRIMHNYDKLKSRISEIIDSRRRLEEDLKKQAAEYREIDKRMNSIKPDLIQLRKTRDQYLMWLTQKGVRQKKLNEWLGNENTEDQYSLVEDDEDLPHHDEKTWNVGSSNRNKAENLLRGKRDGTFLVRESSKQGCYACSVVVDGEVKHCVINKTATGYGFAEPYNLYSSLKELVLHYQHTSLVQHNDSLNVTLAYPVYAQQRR

inhibition at 0.1 µM (PI3Kα kinase) [%] | IC50 (IL-6) [nM] | SMILES | inhibition at 10 µM (PI3K α) [%] | IC50 (A549) [nM] | IC50 (H460) [nM] | IC50 (PC3) [nM] | IC50 (A2780) [nM] | IC50 (HCT116) [nM] | IC50 (AsPC 1) [nM] | IC50 (BxPC3) [nM] | IC50 (MDA MB 468) [nM] | IC50 (BT 549) [nM]
10 to 50 | 1000 to 10000 | CC(C)(C#N)c1ccc(-n2c(=O)n(S(=O)(=O)c3ccc(F)cc3F)c3cnc4ccc(Br)cc4c32)cc1 [Example 17, 2-(4-(8-Bromo-3-(2,4-difluorophenylsulfonyl)-2-oxo-2,3-dihydro-1H-imidazo[4,5-c]quinolin-1-yl)phenyl)-2-methylpropanenitrile] | > 50 | 1000 to 3000 | 1000 to 3000 | 1000 to 3000 | ≤ 1000 | 1000 to 3000 | 1000 to 3000 | 1000 to 3000 | – | –
– | > 30000 | CC(=O)c1ccc(S(=O)(=O)n2c(=O)n(-c3ccc(C(C)(C)C#N)cc3)c3c4cc(C)ccc4ncc32)cc1 [Example 25, 2-(4-(3-(4-Acetylphenylsulfonyl)-8-methyl-2-oxo-2,3-dihydro-1H-imidazo[4,5-c]quinolin-1-yl)phenyl)-2-methylpropanenitrile] | – | > 3000 | > 3000 | > 3000 | > 3000 | – | – | – | > 3000 | > 3000
